Key:
Format in all cases: cell-based
[1] = system: Npw38; experiment: Npw38-NpwBP binding detection by intracellular localization of GFP fluorescence in COS7 cells; conditions: co-introduced with Npw38 expression vector, fluorescence microscopy
Experimental: (§1) Monkey kidney-derived, cultured cell COS7 was incubated in a 10% fetal calf serum-containing Dulbecco's modified Eagle's medium (DMEM) in the presence of 5% CO2 at 37° C. COS7 cells of 1=10^5 were placed in a 6-well plate (from Nunk, having a well diameter of 3 cm), and further incubated therein in the presence of 5% CO2 at 37° C. for 22 hours. After the medium was removed, the cell sur were washed with a phosphate buffer solution (PBS), and then further washed with a 50 mM Tris-HCl (pH 7.5)-containing DMEM. To these cells, added was a suspension comprising 1 μl of a plasmid suspension, 0.6 ml of DMEM and 3 μl of TRANSFECTAM™ (from IBF), and incubated in the presence of 5% CO2 at 37° C. for 12 hours. Then, the cells were washed with PBS, and fixed with 4% peraformaldehyde-containing PBS at room temperature for 10 minutes. The thus-fixed cells were washed with PBS, then treated with 0.2% Triton X-100, and thereafter blocked with 5% milk PBS. This was reacted with an anti-HA antibody for 45 minutes, then washed with PBS, and reacted with a rhodamine-binding secondary antibody for 45 minutes.
Fusion protein HA-Npw38 (A. Komuro et al., J. Biol. Chem., 274: 36513-36519, 1999) was used. This is a fusion protein A-X in which X is Npw38 and A is HA tag. […] Also used were fusion proteins NpwBP(P1)-GFP and NpwBP(P2)-GFP. These are fusion proteins Y-B in which Y is a proline-rich region of NpwBP and B is GFP. In these, P1 contains amino acid residues of from 190th valine to 210th glutamine in SEQ ID NO: 2; and P2 contains amino acid residues of from 401st glutamine to 541st isoleucine in Seq ID NO: 2.
First, pKA1-NpwBP(P1)-GFP or pKA1-NpwBP(P2)-GFP was singly introduced into COS7 cells, and the localization of these fusion proteins in the cells was checked through fluorescence microscopy based on the green fluorescence of GFP as the index thereof. […] In this stage, the cells were immunostained with an antibody against the tag to check the localization of the fusion protein HA-Npw38. This verified the localization of the fusion protein in the nucleus of each cell (FIG. 3c).

[2] = target: T1, NpwBP (Homo sapiens, UniProt Q9Y2W2); experiment: Contrary system: NpwBP co-expressed with Npw38(ΔC)-GFP in COS7 cells, GFP localization
T1 construct: expressed in transfected cells; host or cells: COS7 (monkey kidney)
T1 sequence (Q9Y2W2 1-641): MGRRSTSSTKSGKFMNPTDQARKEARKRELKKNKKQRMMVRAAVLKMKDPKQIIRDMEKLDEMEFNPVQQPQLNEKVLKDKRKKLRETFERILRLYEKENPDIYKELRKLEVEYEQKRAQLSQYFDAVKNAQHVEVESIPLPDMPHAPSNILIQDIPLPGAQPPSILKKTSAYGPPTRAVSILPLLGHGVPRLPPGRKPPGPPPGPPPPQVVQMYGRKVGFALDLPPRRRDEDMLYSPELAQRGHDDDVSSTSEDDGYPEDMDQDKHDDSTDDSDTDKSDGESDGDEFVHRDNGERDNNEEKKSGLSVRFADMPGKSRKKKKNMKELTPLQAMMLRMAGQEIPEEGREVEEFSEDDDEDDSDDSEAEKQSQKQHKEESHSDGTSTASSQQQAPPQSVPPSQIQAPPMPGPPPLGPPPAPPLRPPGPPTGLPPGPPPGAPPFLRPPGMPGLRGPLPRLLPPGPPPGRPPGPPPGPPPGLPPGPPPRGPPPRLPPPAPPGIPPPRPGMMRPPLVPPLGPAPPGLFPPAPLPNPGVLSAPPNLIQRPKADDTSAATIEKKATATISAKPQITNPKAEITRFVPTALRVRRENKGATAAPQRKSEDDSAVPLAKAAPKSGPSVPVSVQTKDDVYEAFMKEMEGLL
Experimental: as §1
Systems contrary to those in the above (3) were tried.

[3] = target: T2, NpwBP(P2)-Bcl-XL (Homo sapiens, UniProt Q07817+Q9Y2W2); experiment: Application of mitochondrial localization signal: co-expression with NpwBP(P2)-Bcl-XL in COS7 cells; conditions: mitochondrial region detected with anti-human mitochondrial antibody
T2 construct: expressed in transfected cells; host or cells: COS7 (monkey kidney)
Experimental: as §1, with “45 minutes. […]” for “45 minutes.”
However, when the fusion protein NpwBP(P2)Bcl-XL was co-expressed therein, the mitochondrial region of each cell also gave the fluorescence (FIG. 4). The mitochondrial region in each cell was detected through immunostaining with an anti-human mitochondrial antibody (Leinco Technologies, Inc.). […]

T2 sequence (Q9Y2W2+Q07817 fused): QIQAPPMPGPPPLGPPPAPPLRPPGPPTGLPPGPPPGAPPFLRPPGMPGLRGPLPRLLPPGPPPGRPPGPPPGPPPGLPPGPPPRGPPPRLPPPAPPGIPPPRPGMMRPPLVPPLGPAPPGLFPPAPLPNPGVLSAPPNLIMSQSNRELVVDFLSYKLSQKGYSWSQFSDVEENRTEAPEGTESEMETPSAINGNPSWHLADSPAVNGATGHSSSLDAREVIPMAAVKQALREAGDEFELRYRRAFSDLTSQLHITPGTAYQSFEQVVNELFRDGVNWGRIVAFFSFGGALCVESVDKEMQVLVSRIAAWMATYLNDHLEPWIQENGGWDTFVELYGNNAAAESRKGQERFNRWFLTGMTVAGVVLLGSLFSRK

| localization of the green fluorescence on co-expression with NpwBP [2] | Substance | localization of the green fluorescence on co-expression with Npw38 [1] | localization of the fluorescence on co-expression with NpwBP(P2)-Bcl-XL [3] |
| --- | --- | --- | --- |
|  | GFP: green fluorescent protein, expressed in place of NpwBP-GFP as control [reference compound] | no intranuclear localization |  |
| move in the nucleus | Npw38(ΔC)-GFP: fusion protein in which the nuclear localization signal in Npw38 was deleted, fused to GFP |  | localized also in the mitochondrial region |
|  | NpwBP(P1)-GFP: fusion protein of proline-rich region P1 of NpwBP (residues 190-210 of SEQ ID NO: 2) and GFP | localized in the nucleus |  |
|  | NpwBP(P2)-GFP: fusion protein of proline-rich region P2 of NpwBP (residues 401-541 of SEQ ID NO: 2) and GFP | localized in the nucleus |  |

Source: US20030040012A1, “Method of detecting protein-protein interaction” (priority 2000, published 2003)
